Type in all cases: cell-based
The target in test [1] is T1, BRAF V600E (Homo sapiens, UniProt P15056, V600E).
T1 construct: endogenous C-terminal HiBiT fusion tag on BRAF V600E allele; endogenous in cells; host or cells: A375 clone 1F10 (CRISPR-Cas9 knock-in of the HiBiT tag; parental A375 from ATCC)
Nature of the test: BRAF HiBiT degradation assay, C-terminal HiBiT-tagged BRAF V600E A375 cells (clone 1F10), Nano-Glo HiBiT Lytic assay. The settings on record: for Dmax: A-375. The method in brief: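 Using CRISPR-engineered A375 cells that carry a C-terminal HiBiT tag on endogenous BRAF V600E, remaining protein was quantified by lytic luminescence relative to DMSO-treated cells, with wildtype A375 as the background control. DC50 denotes the concentration giving 50% degradation.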

For test [2], the target named is T2, BRAF G466V (Homo sapiens, UniProt P15056, G466V).
T2 construct: Horizon Discovery (HCT-116 BRAF−/− cells); host or cells: HCT-116 BRAF−/− cells, clone 8, lentiviral transduction
T2 sequence (P15056 whole entry G466V): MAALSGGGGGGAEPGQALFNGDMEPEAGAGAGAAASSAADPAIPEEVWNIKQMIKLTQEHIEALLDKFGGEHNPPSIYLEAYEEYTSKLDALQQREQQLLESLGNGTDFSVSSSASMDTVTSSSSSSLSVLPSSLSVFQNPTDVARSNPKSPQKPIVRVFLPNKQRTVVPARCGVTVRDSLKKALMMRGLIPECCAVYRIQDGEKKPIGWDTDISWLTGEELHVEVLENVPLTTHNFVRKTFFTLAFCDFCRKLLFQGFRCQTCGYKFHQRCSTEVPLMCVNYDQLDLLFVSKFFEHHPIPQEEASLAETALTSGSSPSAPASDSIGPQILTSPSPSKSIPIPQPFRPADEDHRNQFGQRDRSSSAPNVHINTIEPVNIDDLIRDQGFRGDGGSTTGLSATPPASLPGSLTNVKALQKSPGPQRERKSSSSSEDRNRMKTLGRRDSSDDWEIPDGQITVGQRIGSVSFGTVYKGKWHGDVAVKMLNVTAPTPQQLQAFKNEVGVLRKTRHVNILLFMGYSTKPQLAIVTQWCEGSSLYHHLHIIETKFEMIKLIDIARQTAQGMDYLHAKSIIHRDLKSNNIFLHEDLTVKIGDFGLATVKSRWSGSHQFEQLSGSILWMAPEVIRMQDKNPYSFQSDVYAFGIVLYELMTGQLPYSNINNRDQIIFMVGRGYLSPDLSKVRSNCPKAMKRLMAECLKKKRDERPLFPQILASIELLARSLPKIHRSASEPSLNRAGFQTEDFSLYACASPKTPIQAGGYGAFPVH
Nature of the test: BRAF HiBiT degradation assay, C-terminal HiBiT-tagged BRAF G466V overexpressed in HCT-116 BRAF−/− cells (clone 8), Nano-Glo HiBiT Lytic assay. The method in brief:
(§1)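 Degradation assay in HCT-116 BRAF−/− cells carrying lentiviral HiBiT-tagged mutant BRAF. The readout is % protein remaining across 1 μM to 0.01 nM compound, and DC50 marks 50% remaining.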

The target of test [3] is T3, BRAF G469A (Homo sapiens, UniProt P15056, G469A).
T3 construct: Horizon Discovery (HCT-116 BRAF−/− cells); host or cells: HCT-116 BRAF−/− cells, clone 34, lentiviral transduction
T3 sequence (P15056 whole entry G469A): as the sequence (P15056 whole entry G466V) above, with V466G, G469A counted along it
Nature of the test: BRAF HiBiT degradation assay, C-terminal HiBiT-tagged BRAF G469A overexpressed in HCT-116 BRAF−/− cells (clone 34), Nano-Glo HiBiT Lytic assay. The method in brief:
as §1

For test [4], the target named is T4, BRAF D594G (Homo sapiens, UniProt P15056, D594G).
T4 construct: Horizon Discovery (HCT-116 BRAF−/− cells); host or cells: HCT-116 BRAF−/− cells, clone 63, lentiviral transduction
T4 sequence (P15056 whole entry D594G): as the sequence (P15056 whole entry G466V) above, with V466G, D594G counted along it
Nature of the test: BRAF HiBiT degradation assay, C-terminal HiBiT-tagged BRAF D594G overexpressed in HCT-116 BRAF−/− cells (clone 63), Nano-Glo HiBiT Lytic assay. The method in brief: as §1

The mark [5] stands for this setting: A375 (BRAF V600E), DC50 at 50%: fitted conc. at Y=50.
Setting [6] is: A375 (BRAF V600E), percentage protein degraded at maximal compound effect relative to DMSO.
The mark [7] stands for this setting: BRAF G466V, DC50 at 50%: fitted conc. at Y=50.
Setting [8] is: HCT-116, BRAF G466V, percentage protein degraded at maximal compound effect relative to DMSO.
The mark [9] stands for this setting: Class 2, BRAF G469A, DC50 at 50%: fitted conc. at Y=50.
Setting [10] is: HCT-116, Class 2, BRAF G469A, percentage protein degraded at maximal compound effect relative to DMSO.
Where [11] appears, read: BRAF D594G, DC50 at 50%: fitted conc. at Y=50.
The mark [12] stands for this setting: HCT-116, BRAF D594G, percentage protein degraded at maximal compound effect relative to DMSO.
Where [13] appears, read: A375 (BRAF V600E, Class 1), DC50 at 50% degradation.
Where [14] appears, read: A375 (BRAF V600E, Class 1), observed Dmax, % protein degraded relative to DMSO control.
[15] abbreviates: BRAF G466V (Class 3), HCT-116 BRAF−/− cells, DC50 at 50% degradation.
Setting [16] is: BRAF G466V (Class 3), HCT-116 BRAF−/− cells, observed Dmax relative to DMSO control.
The mark [17] stands for this setting: BRAF G469A (Class 2), HCT-116 BRAF−/− cells, DC50 at 50% degradation.
Where [18] appears, read: BRAF G469A (Class 2), HCT-116 BRAF−/− cells, observed Dmax relative to DMSO control.
Where [19] appears, read: BRAF D594G (Class 3), HCT-116 BRAF−/− cells, DC50 at 50% degradation.
Setting [20] is: BRAF D594G (Class 3), HCT-116 BRAF−/− cells, observed Dmax relative to DMSO control.

T1 sequence (P15056 whole entry V600E, the tested form may be a part): as the sequence (P15056 whole entry G466V) above, with V466G, V600E counted along it

As to `CCCS(=O)(=O)Nc1cccc(-c2nc(C(C)(C)C)sc2-c2ccnc(NC3CC4(C3)CN(C(=O)CN3CCC5(CC3)CN(c3ccc6c(c3)C(=O)N(C3CCC(=O)NC3=O)C6=O)C5)C4)n2)c1F` (racemic) [Compound 152, Rac-N-(3-{2-tert-butyl-5-[2-({2-[2-(2-{2-[(3R)-2,6-dioxopiperidin-3-yl]-1,3-dioxo-2,3-dihydro-1H-isoindol-5-yl}-2,7-diazaspiro[3.5]nonan-7-yl)acetyl]-2-azaspiro[3.3]heptan-6-yl}amino)pyrimidin-4-yl]-1,3-thiazol-4-yl}-2-fluorophenyl)propane-1-sulfonamide], the DC50 was 10 to 50 nM in test [1] (setting [5]), more than 500 nM in test [2] (setting [7]), more than 500 nM in test [3] (setting [9]) and more than 500 nM in test [4] (setting [11]). Besides, the Dmax in test [1] (setting [6]) is 30 to 70%; in test [2] (setting [8]), less than 30%; in test [3] (setting [10]), less than 30%; in test [4] (setting [12]) it was 30 to 70%.
`O=C1CCC(c2ccc(N3CCC(CN4CCCN(c5ccc(-n6cc(-c7cc(Cl)cc(NS(=O)(=O)N8CCCC8)c7F)c(-c7ccncc7)n6)c(F)c5)CC4)CC3)nc2)C(=O)N1` (racemic) [Compound 345, Rac-N-{5-chloro-3-[1-(4-{4-[(1-{5-[(3R)-2,6-dioxopiperidin-3-yl]pyridin-2-yl}piperidin-4-yl)methyl]-1,4-diazepan-1-yl}-2-fluorophenyl)-3-(pyridin-4-yl)-1H-pyrazol-4-yl]-2-fluorophenyl}pyrrolidine-1-sulfonamide]: the 50% degradation concentration (DC50) in test [1] (setting [13]) was less than 10 nM; in test [2] (setting [15]), more than 500 nM; in test [3] (setting [17]), more than 500 nM; in test [4] (setting [19]), more than 500 nM. In addition, the Dmax is more than 70% in test [1] (setting [14]), 30 to 70% in test [2] (setting [16]), less than 30% in test [3] (setting [18]) and less than 30% in test [4] (setting [20]).
For `C[C@@H]1CN(c2ccc(-n3cc(-c4cc(Cl)cc(NS(=O)(=O)N5CCCC5)c4F)c(-c4ccncc4)n3)cc2)CCN1CC1CCN(c2ccc(C3CCC(=O)NC3=O)cn2)CC1` (mixture of isomers) [Compound 268, N-(5-chloro-3-(1-(4-((R)-4-((1-(5-((RS)-2,6-dioxopiperidin-3-yl)pyridin-2-yl)piperidin-4-yl)methyl)-3-methylpiperazin-1-yl)phenyl)-3-(pyridin-4-yl)-1H-pyrazol-4-yl)-2-fluorophenyl)pyrrolidine-1-sulfonamide], the DC50 in test [1] (setting [13]), in test [2] (setting [15]), in test [3] (setting [17]) and in test [4] (setting [19]) was less than 10 nM each time. Besides, the Dmax in test [1] (setting [14]), in test [2] (setting [16]), in test [3] (setting [18]) and in test [4] (setting [20]) was more than 70% throughout.
Take `CCCS(=O)(=O)Nc1cccc(-c2nc(C(C)(C)C)sc2-c2ccnc(Nc3ccc(C4CCN(C(=O)C5CN(c6ccc(C7CCC(=O)NC7=O)cn6)C5)CC4)cc3)n2)c1F` (racemic) [Compound 159, Rac-N-(3-{2-tert-butyl-5-[2-({4-[1-(1-{5-[(3R)-2,6-dioxopiperidin-3-yl]pyridin-2-yl}azetidine-3-carbonyl)piperidin-4-yl]phenyl}amino)pyrimidin-4-yl]-1,3-thiazol-4-yl}-2-fluorophenyl)propane-1-sulfonamide]: the DC50 in test [1] (setting [5]) was less than 10 nM; in test [2] (setting [7]), more than 500 nM; in test [3] (setting [9]), more than 500 nM; in test [4] (setting [11]), more than 500 nM. Further, the Dmax was more than 70% in test [1] (setting [6]), less than 30% in test [2] (setting [8]), less than 30% in test [3] (setting [10]) and 30 to 70% in test [4] (setting [12]).

For the origin of these results see patent US20260317324A1, “BIFUNCTIONAL COMPOUNDS FOR DEGRADING BRAF VIA UBIQUITIN PROTEOSOME PATHWAY” (Nurix Therapeutics, Inc., priority 2023, published 2026).
